Publication PMC7794631 (Medicinal Chemistry Research, 2021)
Where two headings read alike, the source gives them in different places.

Assays:
HFFs = experiment: Cell viability assay; assay type: cell-based, human; settings: read-out: CC50 (μM) ± s.d., 6 days, MTS assay, mean of 2–3 dose–response determinations
HCMV ADCREGFP [1] = settings: HFFs; for EC50: read-out: EC50 (μM) ± s.d., GFP reporter HCMV, GFP expression 6 days after compound, mean of 2–3 dose–response determinations
IAV A/WS/33 (H1N1) [2] = tested on: IAV A/WS/33 (H1N1)
MDCK cells = settings: 24 h, T-1105 at 12.5 μM
Huh-7 cells = settings: at 0.1 μM, Huh-7, 5 days
HCMV ADCREGFP [3] = settings: cited from earlier work
IAV A/WS/33 (H1N1) [4] = settings: cited from earlier work
[5] = tested on: HCMV immediate-early protein 1 (IE1); settings: infected and treated cells; cited from earlier work
[6] = tested on: HCMV immediate-early protein 2 (IE2); settings: infected and treated cells; cited from earlier work
in vitro [7] = settings: dog
IAV A/WS/33 (H1N1) [8] = experiment: microbe, parasite or virus in culture; settings: Influenza A virus, H1N1, MDCK, 24 h
in vitro [9] = settings: human, Compound only, percent viable cells ± standard deviation
HCoV-OC43 = settings: at 1 μM, Huh7, 5 days
[10] = MDCK CPE assay, p97 inhibitors 0.1, 0.25, 0.5 μM, T-1105 at 12.5 μM

With `Cc1cc(OCc2nnc(SC3CCCC3)n2-c2cccnc2)ccc1-c1ccc(S(C)(=O)=O)cc1` [NMS-873] the CC50 (HFFs) was 4.1 ± 3.3 µM, the “TI, tissue culture therapeutic index (CC50/EC50)” value (HCMV ADCREGFP [1]; HCMV) was 1.9 and the EC50 (HCMV ADCREGFP [1]) was 2.2 ± 2.5 µM. For the same molecule, the “anti-IAV activity (in words)” value (IAV A/WS/33 (H1N1) [2]; [10]) was “Clear antiviral effects”, the “cell viability in IAV assay (in words)” value (MDCK cells) was “retention of cell viability” and the “effect on cell viability (in words)” value (Huh-7 cells) was “clear effect on cell viability”. For the same molecule, the “HCMV replication (in words)” value (HCMV ADCREGFP [3]) was “reduced virus replication”, the “IAV virus production (in words)” value (IAV A/WS/33 (H1N1) [4]) was “inhibits virus production” and the IE1 expression [5] was “not affected”. For the same molecule, the IE2 expression [6] was “reduced”, the viability at 0.1 µM (in vitro [7]) was 89 ± 3% and the viability at 0.25 µM (in vitro [7]) was 80 ± 2%. It also gave a viability at 0.5 µM (in vitro [7]) of 94 ± 2%, an inhibition at 0.1 µM (IAV A/WS/33 (H1N1) [8]; read-out: Compound + Virus, percent viable cells ± standard deviation, 0.1 μM, MDCK, 24 h) of 21 ± 7% and an inhibition at 0.25 µM (IAV A/WS/33 (H1N1) [8]; read-out: Compound + Virus, percent viable cells ± standard deviation, 0.25 μM, MDCK, 24 h) of 62 ± 6%.
In the case of `Cc1cc2c(C(N)=O)cccc2n1-c1nc2c(c(NCc3ccccc3)n1)COCC2` [CB-5083], the CC50 (HFFs) is reported as 0.53 ± 0.1 µM, the EC50 (HCMV ADCREGFP [1]) is reported as 0.72 ± 1.1 µM and the “anti-IAV activity (in words)” value (IAV A/WS/33 (H1N1) [2]) is reported as “no detectable anti-IAV activity”. It also gave a viability at 0.1 µM (in vitro [7]) of 97 ± 3%, a viability at 0.25 µM (in vitro [9]) of 59 ± 3% and a viability at 0.5 µM (in vitro [9]) of 38 ± 1%.
With `NC(=O)c1nccnc1O` [Compound T-1105, 3-hydroxypyrazine-2-carboxamide] the “anti-IAV activity (in words)” value (IAV A/WS/33 (H1N1) [2]; [10]) was “Clear antiviral effects” and the “cell viability in IAV assay (in words)” value (MDCK cells) was “retention of cell viability”.
In the case of `CCC(CC)COC(=O)[C@H](C)N[P@](=O)(OC[C@H]1O[C@@](C#N)(c2ccc3c(N)ncnn23)[C@H](O)[C@@H]1O)Oc1ccccc1` [RDV, remdesivir], the “protection against HCoV-OC43 CPE” value (HCoV-OC43) is reported as 100%.
